We go through one compound from US8232299B2, “Phthalimide derivatives that influence cellular vesicular systems, pharmaceutical compositions, and use thereof” (Avidin Kft., priority 2007, dated 2012).

The subject of data set [1] is TNFα. Nature of the data set: late phase (transcriptionally induced) TNFα secretion of macrophages, ELISA. Format: cell-based, mice. The conditions noted are these: preformed TNFα washed away after 4 hours, TNFα of next 4 hours; FIG. 3. On the procedure: For the detection of late phase TNFα secretion the preformed TNFα, released after LPS induction of the macrophages, was washed away after 4 hours, and the amount of TNFα produced during the next 4 hours was determined by ELISA test. […] Results are depicted in FIG. 3.
For orientation: ELISA stands for enzyme-linked immunosorbent assay.

In data set [2] the test system is RVH human melanoma cell line. Briefly: cytotoxic effect on melanoma cell line, MTS assay, 48 hours. Type of data set: cell-based. As to conditions: 48 hours treatment; FIG. 4. On the procedure: RVH human melanoma cell line was cultured in Minimum Essential Medium Eagle (Sigma, St. Louis, Mo., USA), Na-piruvate, Glutamine, Non-essential amino acids, penicillin (50 IU/ml)-streptomycin ([…]), 10% fetal bovine serum at 37° C., in 5% CO2. Cells were trypsinized with trypsin/EDTA (Sigma-Aldrich, St. Louis, Mo.) on every second day and were passed into 60 or 100 mm plates. When the culture reached the required cell number (approx. 10^6) for the planned experiment 50.00 cell/well was plated into 24 well plates (Costar® 24 Well TC-Treated Microplates) and left overnight to adhere to the bottom of the well. Addition of the substance was performed the following way: next day the culture media was drawn from the adhered cells and media comprising compounds of the present invention in appropriate concentration and well mixed therein was pipetted (2 ml/well) onto the cells. The substance to be examined was diluted in 100% DMSO, this way an amount of DMSO corresponding to the highest concentration of the substance in a given assay were measured in the media of the control wells. After 48 hours of treatment live cells were detected by CellTiter® 96 Aqueous Non-radioactive Cell Proliferation Assay (Promega, Madison, Wis., USA) to determine the number of live cells in the treated and in the control samples.
MTS is converted to formazane in the living cells, which product is dissolved in the media, and its quantity/absorbance can be measured at 490 nm. […] Then, for the determination of the ratio of live cells 20 μl MTS and 1 μl PMS are added to 100 μl media. The enzyme reaction occurs at incubation at 37° C., 5% CO2 for 1 to 4 hours. Formazane produced by the cells is read on ELISA plate reader, from which the number of living cells can be obtained indirectly. Since the inventors performed the experiments in 24 well plates with 50.000 cell/well, the protocol had to be modified. After treatment of the cells for an appropriate time (type of compound, different concentrations), the incubation media (2 ml) containing the examined substance was removed, then 400 μl media containing reagents in the same concentration as given above (333.3 μl media, 66.6 μl MTS, and 3.3 μl PMS per well) was pipetted to the cells. To be able to use ELISA plate reader (Multiskan R C, Thermo Labsystems, Franklin, Mass., USA) 400 μl sample from each single well of the 24 well plate was pipetted into four wells of a 96 well plate (Micromethod plates 96 wells flat form) in 100 μl aliquots. That also helped to eliminate possible errors due to inconsistent pipetting. On each 24 well plate 4 wells were control samples. From these 3 times 100 μl was pipetted onto the 96 well plates, so, altogether 12 controls were provided on each 96 well plate. The remaining 4 wells were for background measurements with 100 μl media containing MTS and PMS as described above.
In general terms: Tetrazolium dyes change colour on reduction, which living cells bring about.

Data set [3] deals with TNFα. Briefly: early (preformed) TNFα secretion of RAW.264.7 macrophages, ELISA. Format: cell-based, mice. The text has this: Matured macrophages produce tumor necrosis factor (TNF-alpha or TNFα) in response to bacterial lipopolysaccharide (E. coli LPS, Sigma) stimulation. TNFα production is induced by […] to the toll-like receptor 4 (TLR-4), the lipopolysaccharide binding protein (LBP), and the CD14 receptor. Secretion of the TNFα is biphasic. For one hour after the stimulation macrophages respond with release of preformed TNFα. Meanwhile, the NF-kappaB signaling pathway turns on the TNFα gene transcription reaching maximum after approximately 8 hours.
(§1) In our experiments we investigated the early TNFα secretion of RAW.264.7 matured mice macrophages. This cell line stores large amount of preformed TNFα. […] Culture supernatant was collected and TNFα content was determined by R&D Duoset ELISA kit (detection limit<62.5 pg/ml). […] So the reduced TNFα level was due to inhibition of the release of preformed TNFα and not due to dying of the cells.
In this example two controls (diluent only—ethanol incubated) and four treated samples were analyzed.

Data set [4] concerns the target T1, SEC22b protein (Homo sapiens, UniProt O75396).
T1 sequence (O75396 1-215): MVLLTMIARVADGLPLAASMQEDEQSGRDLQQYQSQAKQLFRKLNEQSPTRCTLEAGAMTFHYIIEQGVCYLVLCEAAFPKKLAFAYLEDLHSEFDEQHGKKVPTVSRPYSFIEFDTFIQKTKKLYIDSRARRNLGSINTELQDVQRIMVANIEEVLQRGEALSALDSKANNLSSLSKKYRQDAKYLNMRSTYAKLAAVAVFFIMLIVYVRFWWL
Briefly: binding to vesicle movement protein.

The test system of data set [5] is RAW.264.7 matured mice macrophages. Briefly: MTS test of vitality / metabolic activity of the macrophages. Format: cell-based. On the procedure: as §1
Effects of compound 3a and compound 3b on TNFα secretion and on NF-kappaB activation could have been based on cytotoxicity as well. To exclude that, we determined the metabolic activity of the cells, which is proportional to the cell number, by MTS test 8 hours after the treatment.

In data set [6] the test system is pseudorabies Bartha type viruses. Type of data set: cell-based, pseudorabies virus. The conditions noted are these: 100 μM.
Data set [7] has as its system human melanoma (HT168M1). Nature of the data set: subcutaneous melanoma tumor model. Type of data set: in vivo, CB17/scid mice. The conditions noted are these: 40 mg/kg per os, once a day five days per week for 3 weeks from day 7; FIG. 8. On the procedure: Slightly anesthetized (diethyl ether narcosis) adult male CB17/scid mice born with immunodeficiency were subcutaneously (s.c.) implanted with 8×10^5 cells from in vitro human melanoma (HT168M1) cultures. After tumor cell inoculation animals were randomly assigned into three groups and their ears were marked. From the 7th day after the tumor cell inoculation mice were treated once a day five days per week for 3 weeks with compound 2 (40 mg/kg), or with compound 3b (40 mg/kg) per os by gavage. Control animals were treated with appropriate dilution of the carrier (DMSO) in a similar manner with similar frequency. Body weight changes were monitored once a week for each animal. When subcutaneous tumor reached palpable size its dimensions were also detected with caliper. Tumor volume was estimated by the formula π/6×a×b^2, where “a” is the longer and “b” is the shorter diameter. 30 days after implantation animals were sacrificed by bleeding in Nembutal (75 mg/kg) anesthesia. Evaluation was based on the mass of the primary tumor.
In this experiment the effect of compound 2 and compound 3b was tested in oral administration at the same dose (40 mg/kg).

In the case of `CCNc1c(F)c(F)c2c(c1F)C(=O)N(c1c(C(C)C)cccc1C(C)C)C2=O` [Compound 3b, 2-(2,6-diisopropylphenyl)-5-(ethylamino)-4,6,7-trifluoroisoindole-1,3-dione], in data set [1], the “late TNFα secretion of macrophages” value was “inhibited late TNFα secretion of macrophages in a concentration dependent way”. The “inhibition of RVH melanoma cells (cytotoxic effect)” value in data set [2] is “strongest inhibition”. Besides, in data set [3] (100 ng/ml LPS, FIG. 2b), the “LPS stimulated TNFα release of the macrophages” value is given as “reduces the induced TNFα release”. In addition, the “basal TNFα release of the macrophages” value in data set [3] (without LPS induction, FIG. 2a) is recorded as “able to reduce the basal TNFα release”. In addition, the “binding to SEC22b protein” value in data set [4] is on record as “can also bind to SEC22b protein”. In data set [5] (3 hours after the stimulation with LPS), the “vitality of the cells (MTS test)” value was “no cell death was detected”. Further, in data set [5] (8 hours after the treatment), the “metabolic activity of the cells (MTS test)” value was “not found to be toxic”. Besides, in data set [6], the “entry of the viruses into the cell” value was “does not inhibit the entry of the viruses into the cell”; the “release and spreading of the viruses in vitro” value is “does inhibit their release and thus their spreading in vitro”. For the same compound, in data set [6] (24 hours), the “plaque size (viral positive cells)” value is on record as 2-6 cells/plaque. In addition, the “effect on growth of the subcutaneous primary tumor (tumor mass)” value in data set [7] is listed as “significantly (p=0.05) reduced tumor size”.
